Here are results for eight compounds from patent US20130053310A1 (NOVO NORDISK A/S, priority 2010, published 2013).

The structures appear in SMILES notation. Entries after “also recorded” stand apart in the source; their conditions may differ. Peptide text beside a SMILES is read from it.

The target of one data set is T1, glucagon receptor (Homo sapiens, UniProt P47871).
T1 construct: expressed in transfected cells
The data set is described as follows: Assay (I) Glucagon activity: cAMP biosensor (ACTOne) FLIPR assay in HEK-293 cells with cloned glucagon receptor. Type of data set: cell-based. As for the experimental part:
The cells (14000 per well) were incubated (37° C., 5% CO2) overnight in 384-well plates. Next day the cells were loaded with a calcium responsive dye that only distributed into the cytoplasm. Probenecid, an inhibitor of the organic anion transporter, was added to prevent the dye from leaving the cell. A PDE inhibitor was added to prevent formatted cAMP from being degraded. […] End point data were collected after 6 minutes. An increase in intracellular cAMP was proportional to an increased in calcium concentrations in the cytoplasm. When calcium was bound the dry a fluorescence signal was generated. EC50-values were calculated in Prism5.

Data set [1] can be described thus: Assay (II) ThT fibrillation assay for physical stability. The class given is physicochemical. The following applies: shaking 960 rpm; for Assay (II) (pH 4.0) Lag time (hours): ThT fibrillation assay, pH 4.0, 250 μM, 10 mM glycylglycine, 45 hours at 37° C. The text has this:
This has traditionally been measured by visual inspection of the sample. However, that kind of measurement is very subjective and depending on the observer. Therefore, the application of a small molecule indicator probe is much more advantageous.
Here, F is the ThT fluorescence at the time t. The constant t0 is the time needed to reach 50% of maximum fluorescence.
Few of those intermediates nucleate to form a template onto which further intermediates may assembly and the fibrillation proceeds. The lag-time corresponds to the interval in which the critical mass of nucleus is built up and the apparent rate constant is the rate with which the fibril itself is formed.
Samples were prepared freshly before each assay. […] The pH of the sample was adjusted to the desired value using appropriate amounts of concentrated NaOH and HCl. Thioflavin T was added to the samples from a stock solution in H2O to a final concentration of 1 μM.
The plate was sealed with Scotch Pad (Qiagen).
Each run was initiated by incubating the plate at the assay temperature for 10 min. The plate was measured every 20 minutes for a desired period of time. Between each measurement, the plate was shaken and heated as described.
The supernatant was filtered through a 0.22 μm filter and an aliquot was transferred to a HPLC vial.
The measurement points were saved in Microsoft Excel format for further processing and curve drawing and fitting was performed using GraphPad Prism.
The data set may be fitted to Eq. (1).

T1 sequence (P47871 26-477): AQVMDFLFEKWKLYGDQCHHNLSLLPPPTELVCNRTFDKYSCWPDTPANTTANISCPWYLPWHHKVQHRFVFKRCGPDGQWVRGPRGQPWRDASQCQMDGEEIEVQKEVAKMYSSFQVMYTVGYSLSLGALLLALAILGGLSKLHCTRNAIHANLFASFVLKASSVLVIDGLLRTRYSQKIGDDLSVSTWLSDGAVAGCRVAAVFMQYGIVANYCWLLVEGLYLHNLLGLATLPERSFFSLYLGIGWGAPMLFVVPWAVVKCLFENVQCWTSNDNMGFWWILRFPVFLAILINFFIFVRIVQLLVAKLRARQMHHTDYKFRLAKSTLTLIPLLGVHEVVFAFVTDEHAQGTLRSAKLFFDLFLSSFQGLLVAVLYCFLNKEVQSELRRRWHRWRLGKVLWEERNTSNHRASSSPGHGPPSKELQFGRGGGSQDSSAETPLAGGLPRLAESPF

One may read the EC50 as the concentration giving half of the maximal effect. As for `CC(C)C[C@H](NC(=O)[C@H](Cc1ccc(O)cc1)NC(=O)[C@H](CCCCN)NC(=O)[C@H](CO)NC(=O)[C@H](Cc1ccc(O)cc1)NC(=O)[C@H](CC(=O)O)NC(=O)[C@H](CO)NC(=O)[C@@H](NC(=O)[C@H](Cc1ccccc1)NC(=O)[C@@H](NC(=O)CNC(=O)[C@H](CCC(N)=O)NC(=O)[C@H](CO)NC(=O)[C@@H](N)Cc1c[nH]cn1)[C@@H](C)O)[C@@H](C)O)C(=O)N[C@@H](CC(=O)O)C(=O)N[C@@H](CO)C(=O)N[C@@H](CCCNC(=N)N)C(=O)N[C@@H](CCCNC(=N)N)C(=O)N[C@@H](C)C(=O)N[C@@H](CCC(N)=O)C(=O)N[C@@H](CCC(=O)O)C(=O)N[C@@H](Cc1ccccc1)C(=O)N[C@H](C(=O)N[C@@H](CCC(N)=O)C(=O)N[C@@H](CCCNC(=N)N)C(=O)N[C@@H](CC(C)C)C(=O)N[C@@H](CC(C)C)C(=O)N[C@@H](CC(N)=O)C(=O)N[C@H](C(=O)O)[C@@H](C)O)C(C)C` [Example 1, [Glu^21, Arg^25, Leu^27]Glucagon], the EC50 at glucagon receptor was determined as 0.017 nM. Moreover, in data set [1] (250 μM in 1 μM ThT, 10 mM glycylglycine buffer pH 4.0, 45 hours at 37° C.), the “ThT emission / fibrillation upon physical stress” value was “does not fibrillate; also recorded: no ThT emission occurred”.
`CC(C)C[C@H](NC(=O)[C@H](Cc1ccc(O)cc1)NC(=O)[C@H](CCCCN)NC(=O)[C@H](CO)NC(=O)[C@H](Cc1ccc(O)cc1)NC(=O)[C@H](CC(=O)O)NC(=O)[C@H](CO)NC(=O)[C@@H](NC(=O)[C@H](Cc1ccccc1)NC(=O)[C@@H](NC(=O)CNC(=O)[C@H](CCC(N)=O)NC(=O)[C@H](CO)NC(=O)[C@@H](N)Cc1c[nH]cn1)[C@@H](C)O)[C@@H](C)O)C(=O)N[C@@H](CC(=O)O)C(=O)N[C@@H](CO)C(=O)N[C@@H](CCCNC(=N)N)C(=O)N[C@@H](CCCNC(=N)N)C(=O)N[C@@H](C)C(=O)N[C@@H](CCC(N)=O)C(=O)N[C@@H](CC(=O)O)C(=O)N[C@@H](Cc1ccccc1)C(=O)N[C@H](C(=O)N[C@@H](CCC(N)=O)C(=O)N[C@@H](Cc1ccc(OP(=O)(O)O)cc1)C(=O)N[C@@H](CC(C)C)C(=O)N[C@@H](CC(C)C)C(=O)N[C@@H](CC(N)=O)C(=O)N[C@H](C(=O)O)[C@@H](C)O)C(C)C` [Example 2, [(O-phosphono)Tyr^25,Leu^27]Glucagon] came in with an EC50 on glucagon receptor of 0.017 nM.
On glucagon receptor, `CC(C)C[C@H](NC(=O)[C@H](Cc1ccc(O)cc1)NC(=O)[C@H](CCCCN)NC(=O)[C@H](CO)NC(=O)[C@H](Cc1ccc(O)cc1)NC(=O)[C@H](CC(=O)O)NC(=O)[C@H](CO)NC(=O)[C@@H](NC(=O)[C@H](Cc1ccccc1)NC(=O)[C@@H](NC(=O)CNC(=O)[C@H](CCC(N)=O)NC(=O)[C@H](CO)NC(=O)[C@@H](N)Cc1c[nH]cn1)[C@@H](C)O)[C@@H](C)O)C(=O)N[C@@H](CC(=O)O)C(=O)N[C@@H](CO)C(=O)N[C@@H](CCCNC(=N)N)C(=O)N[C@@H](CCCNC(=N)N)C(=O)N[C@@H](C)C(=O)N[C@@H](CCC(N)=O)C(=O)N[C@@H](CC(=O)O)C(=O)N[C@@H](Cc1ccccc1)C(=O)N[C@H](C(=O)N[C@@H](CCC(N)=O)C(=O)N[C@@H](CCCNC(=N)N)C(=O)N[C@@H](CC(C)C)C(=O)N[C@@H](CC(C)C)C(=O)N[C@@H](CC(N)=O)C(=O)N[C@H](C(=O)O)[C@@H](C)O)C(C)C` [Example 5, [Arg^25, Leu^27]-Glucagon] came in with an EC50 of 0.057 nM. In addition, the Assay (II) (pH 4.0) Lag time (hours) in data set [1] is greater than 45 hours.
`CC(C)C[C@H](NC(=O)[C@H](Cc1ccc(O)cc1)NC(=O)[C@H](CCCCN)NC(=O)[C@H](CO)NC(=O)[C@H](Cc1ccc(O)cc1)NC(=O)[C@H](CC(=O)O)NC(=O)[C@H](CO)NC(=O)[C@@H](NC(=O)[C@H](Cc1ccccc1)NC(=O)[C@@H](NC(=O)CNC(=O)[C@H](CCC(N)=O)NC(=O)[C@H](CO)NC(=O)[C@@H](N)Cc1c[nH]cn1)[C@@H](C)O)[C@@H](C)O)C(=O)N[C@@H](CC(=O)O)C(=O)N[C@@H](CO)C(=O)N[C@@H](CCCNC(=N)N)C(=O)N[C@@H](CCCNC(=N)N)C(=O)N[C@@H](C)C(=O)N[C@@H](CCC(N)=O)C(=O)N[C@@H](CCC(=O)O)C(=O)N[C@@H](Cc1ccccc1)C(=O)N[C@H](C(=O)N[C@@H](CCC(N)=O)C(=O)N[C@@H](CCCNC(=N)N)C(=O)N[C@@H](CC(C)C)C(=O)N[C@@H](CC(C)C)C(=O)N[C@@H](CO)C(=O)N[C@H](C(=O)O)[C@@H](C)O)C(C)C` [Example 6, [Glu^21, Arg^25, Leu^27, Ser^28]-Glucagon] returned an EC50 on glucagon receptor of 0.026 nM. For the same compound, the Assay (II) (pH 4.0) Lag time (hours) in data set [1] was greater than 45 hours.
Taken in the same sequence, the figures for `CC(C)C[C@H](NC(=O)[C@H](Cc1ccc(O)cc1)NC(=O)[C@H](CCCCN)NC(=O)[C@H](CO)NC(=O)[C@H](Cc1ccc(O)cc1)NC(=O)[C@H](CC(=O)O)NC(=O)[C@H](CO)NC(=O)[C@@H](NC(=O)[C@H](Cc1ccccc1)NC(=O)[C@@H](NC(=O)CNC(=O)[C@H](CCC(N)=O)NC(=O)[C@H](CO)NC(=O)[C@@H](N)Cc1c[nH]cn1)[C@@H](C)O)[C@@H](C)O)C(=O)N[C@@H](CC(=O)O)C(=O)N[C@@H](CO)C(=O)N[C@@H](CCCNC(=N)N)C(=O)N[C@@H](CCCNC(=N)N)C(=O)N[C@@H](C)C(=O)N[C@@H](CCC(N)=O)C(=O)N[C@@H](CC(=O)O)C(=O)N[C@@H](Cc1ccccc1)C(=O)N[C@H](C(=O)N[C@@H](CCC(N)=O)C(=O)N[C@@H](Cc1c[nH]cn1)C(=O)N[C@@H](CC(C)C)C(=O)N[C@@H](CC(C)C)C(=O)N[C@@H](CC(N)=O)C(=O)N[C@H](C(=O)O)[C@@H](C)O)C(C)C` [Example 7, [His^25, Leu^27]-Glucagon] were 0.019 nM and greater than 45 hours.
For the compound `CC(C)C[C@H](NC(=O)[C@H](Cc1ccc(O)cc1)NC(=O)[C@H](CCCCN)NC(=O)[C@H](CO)NC(=O)[C@H](Cc1ccc(O)cc1)NC(=O)[C@H](CC(=O)O)NC(=O)[C@H](CO)NC(=O)[C@@H](NC(=O)[C@H](Cc1ccccc1)NC(=O)[C@@H](NC(=O)CNC(=O)[C@H](CCC(N)=O)NC(=O)[C@H](CO)NC(=O)[C@@H](N)Cc1c[nH]cn1)[C@@H](C)O)[C@@H](C)O)C(=O)N[C@@H](CC(=O)O)C(=O)N[C@@H](CO)C(=O)N[C@@H](CCCNC(=N)N)C(=O)N[C@@H](CCCNC(=N)N)C(=O)N[C@@H](C)C(=O)N[C@@H](CCC(N)=O)C(=O)N[C@@H](CC(=O)O)C(=O)N[C@@H](Cc1ccccc1)C(=O)N[C@H](C(=O)N[C@@H](CCC(N)=O)C(=O)N[C@@H](CCCCN)C(=O)N[C@@H](CC(C)C)C(=O)N[C@@H](CC(C)C)C(=O)N[C@@H](CC(N)=O)C(=O)N[C@H](C(=O)O)[C@@H](C)O)C(C)C` [Example 8, [Lys^25, Leu^27]-Glucagon], a half-maximal response at glucagon receptor (EC50) required 0.1 nM. Also, in data set [1], the Assay (II) (pH 4.0) Lag time (hours) is greater than 45 hours.
Taken in the same sequence, the figures for `CC(C)C[C@H](NC(=O)[C@H](Cc1ccc(O)cc1)NC(=O)[C@H](CCCCN)NC(=O)[C@H](CO)NC(=O)[C@H](Cc1ccc(O)cc1)NC(=O)[C@H](CC(=O)O)NC(=O)[C@H](CO)NC(=O)[C@@H](NC(=O)[C@H](Cc1ccccc1)NC(=O)[C@@H](NC(=O)CNC(=O)[C@H](CCC(N)=O)NC(=O)[C@H](CO)NC(=O)[C@@H](N)Cc1c[nH]cn1)[C@@H](C)O)[C@@H](C)O)C(=O)N[C@@H](CC(=O)O)C(=O)N[C@@H](CO)C(=O)N[C@@H](CCCNC(=N)N)C(=O)N[C@@H](CCCNC(=N)N)C(=O)N[C@@H](C)C(=O)N[C@@H](CCC(N)=O)C(=O)N[C@@H](CCC(=O)O)C(=O)N[C@@H](Cc1ccccc1)C(=O)N[C@H](C(=O)N[C@@H](CCC(N)=O)C(=O)N[C@@H](CCCCN)C(=O)N[C@@H](CC(C)C)C(=O)N[C@@H](CC(C)C)C(=O)N[C@@H](CC(N)=O)C(=O)N[C@H](C(=O)O)[C@@H](C)O)C(C)C` [Example 9, [Glu^21, Lys^25, Leu^27]-Glucagon] were 0.043 nM and greater than 45 hours.
On to `CC(C)C[C@H](NC(=O)[C@H](Cc1ccc(O)cc1)NC(=O)[C@H](CCCCN)NC(=O)[C@H](CO)NC(=O)[C@H](Cc1ccc(O)cc1)NC(=O)[C@H](CC(=O)O)NC(=O)[C@H](CO)NC(=O)[C@@H](NC(=O)[C@H](Cc1ccccc1)NC(=O)[C@@H](NC(=O)CNC(=O)[C@H](CCC(N)=O)NC(=O)[C@H](CO)NC(=O)[C@@H](N)Cc1c[nH]cn1)[C@@H](C)O)[C@@H](C)O)C(=O)N[C@@H](CCC(=O)O)C(=O)N[C@@H](CO)C(=O)N[C@@H](CCCNC(=N)N)C(=O)N[C@@H](CCCNC(=N)N)C(=O)N[C@@H](C)C(=O)N[C@@H](CCC(N)=O)C(=O)N[C@@H](CCC(=O)O)C(=O)N[C@@H](Cc1ccccc1)C(=O)N[C@H](C(=O)N[C@@H](CCC(N)=O)C(=O)N[C@@H](CCCNC(=N)N)C(=O)N[C@@H](CC(C)C)C(=O)N[C@@H](CC(C)C)C(=O)N[C@@H](CC(N)=O)C(=O)N[C@H](C(=O)O)[C@@H](C)O)C(C)C` [Example 10, [Glu^15, Glu^21, Arg^25, Leu^27]-Glucagon] (H-HSQGTFTSDYSKYLESRRAQEFVQRLLNT-OH), for which the EC50 on glucagon receptor was 0.266 nM. In data set [1], this compound returned an Assay (II) (pH 4.0) Lag time (hours) greater than 45 hours.
